The source of these data is patent US5486532A, “Benzospiroalkenes” (Adir et Compagnie, priority 1993, dated 1996).

In general, pEC50 refers to the negative decadic logarithm of the EC50, by convention in mol/L. Read a high pEC50 as a small EC50.

The test system of assay [1] is arterial pressure in amyelated rats. The experiment in a line: In vivo study in amyelated rats, arterial pressure. On the set-up: species or system Sprague Dawley rats. The note with it: Rattus norvegicus, iv, tertatolol pretreated, no prazosin or yohimbine, read-out: C20 Control (concentration which increases the pressure by 20 mmHg). The text has this:
(§1) Male Sprague Dawley rats (300-400 g) are anesthetized with ether. The trachea is cannulated, the spinal column is destroyed using a stainless-steel rod and the animal is 1. 5 immediately placed under artificial respiration. The vagus nerves are dissected. The carotid arteries are ligatured and a catheter is placed in one and serves to record the arterial pressure. Three other catheters are placed in the jugular veins and in the vein of the penis and serve for the injections. The temperature of the animals is maintained at 36° C. The animal is pretreated by an injection of tertatolol […]. The animal is also pretreated 10 minutes later with prazosin ([…]) or yohimbine (1 mg/kg) when it is desired to determine the alpha1 - or alpha2-adrenergic properties of the product. Ten minutes later, increasing cumulative doses of product are injected every 20 seconds. The variations in arterial pressure are detected using a Statham P23XL pressure cell and are recorded. The pressure values are expressed in mmHg. This experiment makes it possible to calculate the concentration which increases the pressure by 20 mmHg (C20) by non-linear regression according to the mass action law model of Michaelis and Menten as described above. The maximum effect obtained is subsequently convened to a percentage relative to the maximum effect induced by phenylephrine. The alpha1 - or alpha2-adrenergic components of the product are evaluated using the C20 ratio obtained in the presence of prazosin or yohimbine on the values obtained in the absence of these antagonists. In amyelated rats, the products of the invention produce hypertensions which are sensitive to prazosin and to yohimbine.

Assay [2] has as its system alpha1-adrenergic. The assay can be described thus: Amyelated rats, alpha1-adrenergic component (C20 ratio with prazosin). The format is in vivo, Sprague Dawley rats. As to conditions: pretreated with prazosin.
Text: as §1

For assay [3], the system named is alpha2-adrenergic. The experiment in a line: Amyelated rats, alpha2-adrenergic component (C20 ratio with yohimbine). Type of assay: in vivo, Sprague Dawley rats. As to conditions: pretreated with yohimbine (1 mg/kg).
Text: as §1

Assay [4] deals with dog femoral arteries. The assay can be described thus: Contraction of isolated dog femoral arteries. The note with it: Canis lupus familiaris; for pEC50: dog femoral artery rings, cumulative doses; for Emax: maximum contraction relative to 100 mM KCl, dog femoral artery, read-out: ARTERY Max. As for the experimental part:
(§2) The technique used is based on that described by Fowler et al. (J. Pharmacol. Exp. Ther., 229, 712-718, 1984). Male or female mongrel dogs of approximately 15-25 kg were used as organ sources. The animals are anesthetized with pentobarbital (30 mg/kg intravenously). The legs are incized and the blood vessels removed. They are placed in Krebs-Ringer liquid (118 mM NaCl; 25 mM NaHCO3; 10 mM Glucose; 4.7 mM KCl; 1.25 mM CaCl2; 1.19 mM MgSO4; 1.14 mM KH2 PO4) at room temperature and under a sparge of carbogen (95% O2, 5% CO2). These blood vessels are then carefully freed of their fat and then cut into rings 2 mm wide and mounted under a base tension of 4 g (femoral arteries) or 1 g (saphena veins) in tanks thermostated at 37° C. containing Krebs-Ringer liquid and constantly sparged with carbogen. A lower hook constitutes the fixed point, whereas the upper hook is connected to an isometric force sensor. The variations in tension are digitized, stored on disk and processed by an information technology system. After mounting, the organs are left to rest for 90 minutes, with rinses being carried out every 30 min. After readjustment of the base tension, a contraction is induced by a single dose of KCl (100 mM). After stabilization, washing and returning to the base line, a contraction is provoqued by a single dose of phenylephrine (submaximal concentration) in order to regulate the following contractions. After washing and returning to the baseline, an effect/concentration curve is produced by addition of cumulative doses of agonist (the space between the doses is a semi-log). This experiment makes it possible to calculate the 50% effective concentration (EC50) in the following way: the tension values are first of all converted to percentages relative to the maximum effect induced by 100 mM of KCl. This EC50 is determined by non-linear regression by the SIMPLEX method (M. S. Caceci, Byte, 340-362, 1984), calculated according to the mass action law model of L. Michaelis and M. L. Menten (Biochem. Zeitschrift, 49, 333-369, 1913).
(§3) E=(Emax*C^n)(EC^n +C^n) with E=effect; Emax=maximum effect; C=concentration; EC=EC50; n=Hill number
(§4) The products of the invention contract dog arteries and veins. The maximum for these contractions approaches that obtained with KCl.

The test system of assay [5] is saphena veins. The experiment in a line: Contraction of isolated dog saphena veins. As to conditions: Canis lupus familiaris; for pEC50: dog saphena vein rings, cumulative doses; for Emax: maximum contraction relative to 100 mM KCl, dog saphena vein, read-out: VEIN Max. How it is done: as §2, §3, §4

pEC50: −log10 of the molar value.

In the case of `Oc1cccc2c1CC1(CC2)CNC=N1` (centres unmarked) [Example 5, Spiro[(1,3-diazacyclopent-1-ene)-5:2'-(8'-hydroxy-1',2',3', 4'-tetrahydronaphthalene)]fumarate], the ED (20 mmHg) in assay [1] turned out to be 4.8 µg/kg. For the same compound, the “Ratio treated C20 / control C20, Prazosin” value in assay [2] is recorded as 0.9. In addition, the “Ratio treated C20 / control C20, Yohimbine” value in assay [3] turned out to be 12.0.
`Clc1cccc2c1CC1(CC2)CNC=N1` (single isomer, unassigned) [Example 6, Spiro[(1,3-diazacyclopent-1-ene)-5:2'-(8'-chloro-1',2',3', 4'-tetrahydronaphthalene)]L-(+)-tartrate, αisomer]: in assay [4], the pEC50 was 5.70 and the Emax was determined as 91%. Besides, in assay [5], the pEC50 is 5.15 and the Emax was 96%. In assay [1], the ED (20 mmHg) was determined as 0.1 µg/kg. Also, in assay [2], the “Ratio treated C20 / control C20, Prazosin” value amounted to 1.7. Also, the “Ratio treated C20 / control C20, Yohimbine” value in assay [3] turned out to be 4.0.
Regarding `Clc1cccc2c1CC1(CC2)CNC=N1` (centres unmarked) [Example 1, Spiro[(1,3-diazacyciopent-1-ene)-5:2'-(8'-chloro-1', 2',3',4'-tetrahydronaphthalene)]fumarate], in assay [4], the pEC50 is 6.00 and the Emax came out at 94%. In assay [5], the pEC50 was 6.70 and the Emax turned out to be 95%. In addition, in assay [1], the ED (20 mmHg) turned out to be 0.2 µg/kg. In addition, the “Ratio treated C20 / control C20, Prazosin” value in assay [2] came out at 1.9. The “Ratio treated C20 / control C20, Yohimbine” value in assay [3] is recorded as 6.0.
